Laboratory results: publication PMC8351955, “Targeting Mycobacterium tuberculosis response to environmental cues for the development of effective antitubercular drugs” (PLoS Biology, 2021)
Read-outs that look alike come from different tables or passages of the source.

Experiments:
[1] = test system: CDC1551(rv1405c′::GFP) reporter Mtb strain; assay: microbe, parasite or virus in culture; type: cell-based, Mycobacterium tuberculosis; settings: Mycobacterium tuberculosis; for activity at 10 µM: read-out: rv1405c'::GFP secondary assay NPA% at 10 µM compound; for activity at 20 µM: read-out: rv1405c'::GFP secondary assay NPA% at 20 µM compound
[2] = test system: CDC1551(rv2390c′::GFP) reporter Mtb strain, response to high [Cl−]; assay: microbe, parasite or virus in culture; type: cell-based, Mycobacterium tuberculosis; settings: Mycobacterium tuberculosis, 144 h; for activity at 20 µM: read-out: rv2390c'::GFP validation assay NPA% at 20 µM compound
[3] = pH 6.4, […], DMSO positive control = 100%, read-out: Primary screen rv2390c'::GFP NPA%
[4] = 10 µM, pH 6.4, 250 mM NaCl, 6 days, read-out: rv2390c'::GFP validation assay NPA% at 10 µM compound

| SMILES | activity at 10 µM [1] [%] | activity at 20 µM [1] [%] | activity at 10 µM [2, 3] [%] | activity at 10 µM [2, 4] [%] | activity at 20 µM ([2]; pH 6.4, 250 mM NaCl, 6 days) [%] |
| --- | --- | --- | --- | --- | --- |
| COC(=O)c1sc(NS(=O)(=O)c2ccc(S(C)(=O)=O)c(F)c2)nc1C [RU-0208648, COC(=O)C1=C(C)N=C(NS(=O)(=O)C2=CC(F)=C(C=C2)S(C)(=O)=O)S1] | 45.2 ± 2.1 | 13.7 ± 2.5 | 36.7 | 55.2 ± 3.9 | 38.5 ± 6.3 |
| O=C(NC[C@H]1C[C@H]2C=C[C@H]1C21CC1)c1cnc(N2CCOCC2)nc1 [RU-0184528, O=C(NC[C@H]1C[C@H]2C=C[C@H]1C21CC1)C1=CN=C(N=C1)N1CCOCC1] | 104 ± 21.9 | 136 ± 11.8 | 158 | 111 ± 2.1 | 134 ± 13.6 |
| COCCCC(=O)Nc1cccc(NC2CCCC2)c1 [RU-0215502, COCCCC(=O)NC1=CC(NC2CCCC2)=CC=C1] | 342 ± 33.3 | 804 ± 46.8 | 216 | 152 ± 5 | 276 ± 16.4 |
| CSc1nc2nc3c(cc2c(=O)[nH]1)C(O)Oc1ccc(C)cc1-3 (centres unmarked) [RU-0183239, CSC1=NC2=C(C=C3C(O)OC4=C(C=C(C)C=C4)C3=N2)C(=O)N1] | 53.9 ± 4.3 | 12.9 ± 5.2 | 49.5 | 49.2 ± 4.2 | 33.7 ± 1.8 |
| COc1ccc(COc2ccccc2NC(C)=O)cc1Br [RU-0277875, COC1=C(Br)C=C(COC2=C(NC(C)=O)C=CC=C2)C=C1] | 139 ± 5.6 | 199 ± 12.2 | 175 | 138 ± 7.5 | 229 ± 11.9 |
| Clc1cccc2ccc(CN3CCn4cncc4C3)nc12 [RU-0247165, ClC1=C2N=C(CN3CCN4C=NC=C4C3)C=CC2=CC=C1] | 226 ± 14.7 | 688.7 ± 3.5 | 219 | 132 ± 7.5 | 317 ± 6.7 |
| O=S(=O)(Nc1c(F)cccc1F)c1c(Cl)cccc1Cl [RU-0271471, FC1=CC=CC(F)=C1NS(=O)(=O)C1=C(Cl)C=CC=C1Cl] | 32.2 ± 2 | 13.8 ± 3.7 | 26 | 46.1 ± 5.6 | 25.7 ± 1.9 |
| Cc1nc2nc(-c3cccs3)nn2c(O)c1C1CCS(=O)(=O)C1 (centres unmarked) [RU-0194400, CC1=NC2=NC(=NN2C(O)=C1C1CCS(=O)(=O)C1)C1=CC=CS1] | -2.1 ± 2.6 | 2.5 ± 7 | 7.1 | 9.1 ± 3.9 | 15 ± 5.3 |
| CCOC(=O)N1C/C(=C/c2cccc(O)c2)C(=O)/C(=C/c2cccc(O)c2)C1 [RU-0202273, CCOC(=O)N1C\C(=C\C2=CC(O)=CC=C2)C(=O)\C(C1)=C\C1=CC(O)=CC=C1] | 84.5 ± 18.2 | 158 ± 19.3 | 154 | 113 ± 3.2 | 117 ± 11 |
| CC(C)c1cc(C(=O)NC2CCN(c3cccc(F)c3)CC2)n[nH]1 [RU-0278450, CC(C)C1=CC(=NN1)C(=O)NC1CCN(CC1)C1=CC(F)=CC=C1] | 92.3 ± 5.3 | 146 ± 5.1 | 175 | 118 ± 5.7 | 231 ± 1 |
| CCCn1ncc(C(=O)NC(C)C(=O)Nc2ccc(F)cc2C)c1C (centres unmarked) [RU-0232065, CCCN1N=CC(C(=O)NC(C)C(=O)NC2=CC=C(F)C=C2C)=C1C] | 91.3 ± 9.4 | 98.3 ± 13 | 154 | 119 ± 6.6 | 147 ± 14.2 |
| O=C(c1nccc2ccccc12)N1CCN(CC2CCCC2)CC1 [RU-0257267, O=C(N1CCN(CC2CCCC2)CC1)C1=C2C=CC=CC2=CC=N1] | 267 ± 23 | 822 ± 58.1 | 199 | 140.3 ± 0.6 | 254 ± 8.7 |
| Cc1oc(C(=O)Nc2nnc(C(F)(F)F)[nH]2)cc1S(=O)(=O)N1CCCC1 [RU-0213804, CC1=C(C=C(O1)C(=O)NC1=NN=C(N1)C(F)(F)F)S(=O)(=O)N1CCCC1] | 39.8 ± 7.2 | 21.3 ± 6 | 31.2 | 54.8 ± 1.2 | 42.3 ± 1 |
| Cc1ccc2cc(S(=O)(=O)NCCn3nc(C)c(Cl)c3C)ccc2c1 [RU-0211306, CC1=NN(CCNS(=O)(=O)C2=CC3=C(C=C2)C=C(C)C=C3)C(C)=C1Cl] | 84.4 ± 8.8 | 99.4 ± 9.4 | 154 | 122 ± 3.2 | 156 ± 2.1 |
| OC1(c2ccccc2)CCN(Cc2cnc3c(-c4ccccc4)cnn3c2)CC1 [RU-0224846, OC1(CCN(CC2=CN3N=CC(=C3N=C2)C2=CC=CC=C2)CC1)C1=CC=CC=C1] | 101 ± 18 | 140 ± 37.5 | 153 | 118 ± 10.8 | 159 ± 15.9 |
| O=c1[nH]c(SCC2OCCc3ccccc32)nc2[nH]ncc12 (centres unmarked) [RU-0271878, O=C1NC(SCC2OCCC3=C2C=CC=C3)=NC2=C1C=NN2] | 57.7 ± 7 | 24.9 ± 3.6 | 43.3 | 63.4 ± 5.5 | 24.3 ± 3.8 |

| SMILES | activity at 10 µM [1] [%] | activity at 20 µM [1] [%] | activity at 10 µM [2, 3] [%] | activity at 10 µM [2, 4] [%] | activity at 20 µM ([2]; pH 6.4, 250 mM NaCl, 6 days) [%] |
| --- | --- | --- | --- | --- | --- |
| CCCc1oncc1C(=O)NC1CC(=O)N(CCc2ccc(F)cc2)C1 (centres unmarked) [RU-0245406, CCCC1=C(C=NO1)C(=O)NC1CN(CCC2=CC=C(F)C=C2)C(=O)C1] | 87.7 ± 9 | 114 ± 25.7 | 172 | 126 ± 7.5 | 163 ± 6.6 |
| Cn1ccc(C(=O)Nc2nc(Sc3ccccc3)ns2)cc1=O [RU-0206593, CN1C=CC(=CC1=O)C(=O)NC1=NC(SC2=CC=CC=C2)=NS1] | 42 ± 9.6 | 38.3 ± 17.6 | 42.6 | 39.2 ± 6.9 | 22.7 ± 6.8 |
| CC(OC(=O)CC(C)(C)C)c1nc2cc(Cl)ccc2n1C (centres unmarked) [RU-0203619, CC(OC(=O)CC(C)(C)C)C1=NC2=C(C=CC(Cl)=C2)N1C] | 75.6 ± 6.2 | 96.6 ± 5.5 | 153 | 95.6 ± 13.8 | 131 ± 11 |
| Cn1cc(CCC(=O)Nc2ccc3c(c2)S(=O)(=O)C=C3)cn1 [RU-0278569, CN1C=C(CCC(=O)NC2=CC3=C(C=CS3(=O)=O)C=C2)C=N1] | 74.5 ± 5.4 | 76.5 ± 4.9 | 47.1 | 80.9 ± 7.4 | 63.4 ± 5.6 |
| O=C(Cc1ccc2c(c1)CCC2)NCc1ccccc1F [RU-0268882, FC1=C(CNC(=O)CC2=CC3=C(CCC3)C=C2)C=CC=C1] | 103 ± 10.5 | 105 ± 20.7 | 175 | 130 ± 7 | 176 ± 16.5 |
| COc1ccc(F)c(-c2cc3c(cc2C(N)=O)OCO3)c1 [RU-0251853, COC1=CC(=C(F)C=C1)C1=CC2=C(OCO2)C=C1C(N)=O] | 147 ± 32 | 296 ± 65.4 | 182 | 147 ± 6.1 | 276 ± 8 |
| Cc1cc(NS(=O)(=O)Cc2cccc(C(F)(F)F)c2)n(C)n1 [RU-0274447, CN1N=C(C)C=C1NS(=O)(=O)CC1=CC(=CC=C1)C(F)(F)F] | 303 ± 7.6 | 619 ± 9.2 | 186 | 171 ± 11.2 | 252 ± 10.1 |
| CCCC(C)c1nnc(NC(=O)c2nnc3nc(C)cc(C)n23)s1 (centres unmarked) [RU-0225311, CCCC(C)C1=NN=C(NC(=O)C2=NN=C3N=C(C)C=C(C)N23)S1] | 110 ± 9.7 | 137 ± 16.9 | 155 | 116 ± 6.7 | 195 ± 6.5 |
| COc1ccc(Cl)cc1-c1cc(NC(=O)c2c(C)noc2C)[nH]n1 [RU-0210243, COC1=C(C=C(Cl)C=C1)C1=NNC(NC(=O)C2=C(C)ON=C2C)=C1] | 342.7 ± 3.1 | 737 ± 25.3 | 254 | 211 ± 11.6 | 357 ± 20 |
| O=C(O)c1cc2ccccc2cc1NS(=O)(=O)N1CCCCC1 [RU-0210069, OC(=O)C1=C(NS(=O)(=O)N2CCCCC2)C=C2C=CC=CC2=C1] | 52.8 ± 1.5 | 31.2 ± 2.6 | 44.6 | 66.4 ± 3.4 | 58.6 ± 5.9 |
| Cc1ccccc1OCC(=O)NCc1ccc(C)n1C [RU-0272839, CN1C(C)=CC=C1CNC(=O)COC1=C(C)C=CC=C1] | 93 ± 7.6 | 104 ± 5.9 | 215 | 161 ± 13.6 | 204 ± 5.5 |
| Cn1cccc1C(=O)NS(=O)(=O)c1ccc(C#N)c(Cl)c1 [RU-0207640, CN1C=CC=C1C(=O)NS(=O)(=O)C1=CC(Cl)=C(C=C1)C#N] | 175 ± 20 | 357 ± 29.5 | 177 | 148 ± 12.2 | 203 ± 22.6 |
| Cc1cc(C(C)C(=O)Nc2ccc(N3CCN(C)CC3)cn2)c(C)o1 (centres unmarked) [RU-0182922, CC(C(=O)NC1=NC=C(C=C1)N1CCN(C)CC1)C1=C(C)OC(C)=C1] | 96.9 ± 6.7 | 106 ± 5.2 | 174 | 139 ± 18.3 | 164 ± 13.6 |
| COCCOc1ccc(NS(=O)(=O)c2cn(C)c(Cl)n2)cn1 [RU-0203727, COCCOC1=NC=C(NS(=O)(=O)C2=CN(C)C(Cl)=N2)C=C1] | 330 ± 19.1 | 996 ± 23.7 | 277 | 168 ± 16.8 | 309 ± 6.8 |
| CC(=O)N1N=C(c2c(-c3ccccc3)c3ccc(C)cc3[nH]c2=O)CC1c1ccco1 (centres unmarked) [RU-0204568, CC(=O)N1N=C(CC1C1=CC=CO1)C1=C(C2=CC=CC=C2)C2=C(NC1=O)C=C(C)C=C2] | 102 ± 12.9 | 116 ± 27.3 | 162 | 125 ± 9.5 | 198 ± 21 |
